Assay results as given in patent publication US20230346884A1, “Molecular Targets for Modulation of Dissociative and Associative States” (The Board of Trustees of the Leland Stanford Junior …, priority 2020, published 2023).

Assays:
[1] = system: retrosplenial cortex (RSP) neurons; assay: Two-photon imaging of RSP; format: in vivo, mouse
Description: Mice were anesthetized with isoflurane and the skull above retrosplenial cortex was removed and replaced with a 7 mm circular glass coverslip. For layer 1 experiments, ThylGcaMP6s mice were used. For layer 2/3 experiments, Cux2-CreER;Ai148 mice were used (tamoxifen dissolved in corn oil was injected intraperitoneally at 0.1 mg/g at least 2 weeks prior to imaging). For layer 5 experiments, Rbp4-Cre mice were injected locally in retrosplenial with 800 nL AAVdj-Ef1a-DIO-GCaMP6f (titer 5E12) at stereotactic coordinates (−3AP, 0.5 ML, −0.6DV). Mice were given >=1 week to recover before imaging. Awake, head-fixed imaging was performed on a standard two photon microscope (NeuroLabWare, Los Angeles, CA). A 16×0.8 NA Nikon objective was immersed in clear ultrasound gel for imaging (Aquasonic, Parker Laboratories); frame rate of 30 Hz. Although we observed oscillations in RSP with 50 mg/kg, we were concerned that 50 mg/kg may be too low a dose to sensitively detect a potentially weaker signal in visual cortex or layer 2/3, and so we used 80 mg/kg in these experiments.
Two-photon tiff stack videos were registered to the average image using the TurboReg ImageJ plug-in using rigid body transformations. […] Contaminating neuropil signal was estimated from an annulus surrounding each soma mask and removed using the function F(t)=Fsoma(t)−0.3*Fneuropil(t), where Fsoma(t) is the somatic DF/F and Fneuropil(t) is the DF/F from an annulus 4 pixels wide surrounding each soma mask. The resulting traces were detrended and z-scored. The full frame fluorescence (used for quantifying layer 1 neuropil oscillations) was computed by summing all of the pixels in each frame on each time point, and then computing DF/F the same way, with no neuropil subtraction step.
Each trace (corresponding to either a fiber photometry signal, a cellular two-photon signal, a widefield regional centroid, a widefield pixel, an sEEG trace, or a smoothed spike rate Neuropixels trace) was z-scored, and the power spectral density (PSD) was then estimated using Welch's method (pwelch( ) in Matlab), with a window size of 10*fs (15*fs for human sEEG) where fs is the sampling rate of the signal. The average band power within a specified band (i.e. 1-3 Hz) was then computed by integrating the PSD estimate (bandpower in Matlab). For displaying the traces of individual cells, traces were each zscored by subtracting the mean value of the trace (across the whole recorded time window) and dividing by the standard deviation of the trace. Unless otherwise indicated, the PSD was computed across the time window from minutes 10 to 11 post-injection.

mice [2] = assay: Tail suspension test; format: in vivo, mouse
Description: Tail Suspension Test: Mouse activity was recorded using a 60 Hz web camera. Struggling activity was quantified for minutes 2-10. […] Illumination began 30 seconds before tails were secured with tape and suspended from the beam. Mice were excluded if they climbed on their own tails.

mice [3] = assay: Resident-intruder social interaction assay; format: in vivo, mouse
Description: Social Interaction Assay: Resident-intruder social interaction was recorded for two minutes. Interactions were defined as close physical proximity behaviors, including sniffing, touching, and following. […] Illumination began 30 seconds before the same-sex intruder mouse was introduced.

mice [4] = assay: Righting reflex assay; format: in vivo, mouse
Excerpt: Righting Reflex Assay: Mice were held at the neck and tail, rotated to supine position on a flat surface, and quickly released. Time to right was quantified as moment of release to moment when all 4 legs touched the ground. A five second threshold was used to classify righting success (less than 5 seconds) from failure (more than 5 seconds). […] Illumination began for 30 seconds, and then the mouse was swiftly inverted onto the flat surface.

mice [5] = assay: Observation for seizure-like signs after ketamine; format: in vivo, mouse; conditions: dissociative doses of ketamine
Excerpt: One characteristic of seizures is increased synchrony. While the ketamine-induced rhythm involved increased synchrony in neuronal firing, the initiation, spread, maintenance/termination, and behavior were distinguishable from typical seizures.

mice [6] = assay: Hot plate test
Description: Hot Plate Test: Mice were placed on the hot plate (Bioseb), which was set to 55° C. and surrounded by a clear circular perimeter. Mouse activity was recorded using two cameras from different angles. The experiment ended when the mouse jumped to escape or 90 seconds had elapsed. Care was taken to clean and dry the hot plate apparatus between animals. For optogenetic experiments, mice were connected to patch cords and then returned to a holding cage. Illumination began 30 seconds before mice were placed on the hot plate.

mouse = assay: Ketamine dose-effect relationship in mouse
Description: (§1) (2 mg/kg), lidocaine (topical), LSD ((+)-Lysergic acid diethylamide (+)-tartrate (2:1), 0.3 mg/kg), and diazepam (2 mg/kg). […] For anti-depressant effects, human doses are typically 0.3-1 mg/kg, and in mouse 3-10 mg/kg.

[7] = system: retrosplenial cortex (RSP); assay: Widefield (pan-cortical) imaging of cortical activity in GCaMP6s mice
Description: as §1
As described^8, mice were anesthetized with isoflurane, the scalp was removed, the skull cleaned and dried, and a custom head-plate was cemented to contacts over the cerebellum and in front of the olfactory bulb. The skull was then covered in a thin layer of cyanoacrylate glue (Apollo 2000, Cyberbond), clear dental acrylic (Ortho-Jet, Lang Dental), and clear nail polish (Electron Microscopy Services). […] (0.1 mg/kg) was injected subcutaneously for pain management. […] Imaging was performed on a custom-built fluorescence microscope designed for high light collection efficiency and large field of view. […] Alternating 410 nm and 488 nm illumination for non-Ca^2+ dependent artifact removal was controlled using a microcontroller (Arduino) slaved to the frame output trigger of the camera.
Analysis was performed using custom MATLAB (MathWorks) scripts. Widefield imaging videos were registered to a 2D top-projection atlas generated from the annotated Allen Brain Atlas volume, version CCFv2, in MATLAB (MathWorks), using an affine transformation computed from four manually selected control points. Each video was DF/F normalized, using the median for each pixel over the entire time series as F. The 410 nm channel was then temporally smoothed using a moving average (width=400 ms). The smoothed 410 nm DF/F signal for each pixel was regressed onto the 488 nm DF/F signal for the corresponding pixel, and the regression coefficients were used to scale the 410 nm channel to the 488 nm channel. This scaled 410 nm DF/F signal was then subtracted from the 488 nm DF/F signal to produce a normalized signal for each pixel. For quantification, activity traces were extracted from points centered in five cortical regions (visual, somatosensory, parietal, motor, retrosplenial) on the left hemisphere of the brain. The video data was Gaussian smoothed spatially (radius=2 pixels). Similarly, for fiber photometry recordings, the 410 nm signal was regressed onto the 488 nm signal, the 410 nm signal was scaled by the regression coefficients, and then subtracted from the 488 nm signal.

[8] = system: neurons throughout the brain; assay: Simultaneous recording from four Neuropixels probes with i.p. drug delivery
Description: Mice were anesthetized with isoflurane, carefully leveled in a stereotaxic apparatus and their scalp and periosteum were removed. A 3% hydrogen peroxide in saline solution was used to clean the surface of the skull. A custom stainless steel headbar was leveled on the skull and attached using clear dental cement. After the cement had dried, targeted probe entry sites were stereotaxically marked on the cement layer with a permanent marker (Day 1: “mPFC”, 2.3AP, 0.6 ML; “somatosensory”, −0.7AP, −4.0 ML; “retrosplenial”, −2AP, −1 ML; “subiculum”, −3.5AP, 2.14 ML; Day 2: “OFC”: 2.5AP, 1.5 ML; “mPFC”: 2.3AP, −0.6 ML; “retrosplenial”, −2AP, 1 ML; “thalamus”, −1.5AP, −1.7 ML). […] A 2 mm long insulated platinum-iridium wire was implanted centrally over the cerebellum, with the last several hundred microns bared to serve as an electrical reference.
Mice were acclimated to head fixation and the recording rig over several days before recording. Several hours before recording, mice were anesthetized for approximately 30 minutes each while small 1 mm craniotomies were made over four pre-marked areas. Craniotomies were kept clean of bone fragments and made such that bleeding was minimized. The skull was covered with a pool of saline and with Quik-Cast to protect and keep moist craniotomies before recording. Mice recovered in their homecages before recording. Immediately prior to recording set up, mice were very briefly anesthetized with isoflurane and implanted with an IV catheter system (BD Saf-T-Intima Closed IV Catheter System: 22G ×¾″, containing an integrated Y adaptor and safety lock) to their intraperitoneal cavity and affixed with glue. […] While still anesthetized, mice were headfixed and tubing was secured stably to a custom mouse holder by tape. Quik-Cast was removed from the skull, and craniotomies were briefly cleaned before being submerged in a pool of saline. Four Neuropixels 1.0 probes^43,44, were grounded together with the mouse reference electrode, coated with red fixable dye (CM-Dil, ThermoFisher), positioned over each craniotomy, and carefully inserted at approximately 15 degrees from the vertical axis to depths of 4-5 mm at a rate of approximately 3 um/s. Following the completion of all insertions, the probes were allowed to rest for at least 10 minutes before the recording began. 30 kHz data was acquired from the four probes simultaneously using the Neuropixels control system (as described in the User Manual) and SpikeGLX software (billkarsh.github.io/SpikeGLX/). The four acquisitions were synchronized using a common squarewave signal recorded for all probes and aligned to the nearest pulse edge. Following the beginning of recording, a 20-minute baseline period of activity was collected. […]

[9] = both channel-knockouts (HCN1, GRIN1), ketamine
[10] = controls (wild-type), 50 mg/kg ketamine

## CNC1(c2ccccc2Cl)CCCCC1=O (stereo not drawn) [ketamine]
[1]; Cux2-CreER mice, ketamine
  Oscillation / population synchrony in layer 2/3 RSP neurons: neither oscillating neurons nor population synchrony were observed
[1]; Rbp4-Cre mice, ketamine
  Oscillation / population synchrony in layer 5 RSP neurons: exhibited synchronous activity
[1]; n=5 mice
  Hedge's g effect-size, mean 1-3 Hz power before/after ketamine, layer 2/3 RSP cells (FIG. 1I): −0.46
  Hedge's g effect-size, mean 1-3 Hz power before/after ketamine, layer 5 RSP cells (FIG. 1I): 3.16
[1]; two-photon, cranial window, 80 mg/kg
  Oscillation in superficial neuropil, RSP vs neighboring visual cortex: observed the oscillation in RSP but not neighboring visual cortex
Mice [2]; [9]
  Tail suspension-escape behavior vs. wild-type: modestly-recovered tail suspension-escape behavior
Mice [2]; ketamine >=25 mg/kg
  Tail-suspension escape responses: suppressed tail-suspension escape responses
Mice [3]; [9]
  Resident-intruder social interactions vs. wild-type: modestly-recovered
Mice [3]; ketamine >=25 mg/kg
  Resident-intruder interactions: suppressed
Mice [4]; anesthetic ketamine 200 mg/kg
  Righting-reflex test for consciousness: abolished by anesthetic ketamine
Mice [4]; subanesthetic ketamine doses
  Righting-reflex test for consciousness: preserved in all animals
Mice [4]; wild-type and knockout mice, ketamine
  Righting of postural inversion: all mice successfully-righted postural inversion
Mice [5]
  Seizure-like signs: no rigidity, convulsive movements, absence-like states, or salivation/rearing/falling were observed
Mice [6]; GRIN1 knockouts, ketamine
  Affective behavior: without recovery of affective behavior
Mice [6]; HCN1-KO mice with RSP Cre-virus, 50 mg/kg ketamine
  Affective paw-licking: strikingly restored affective paw-licking
Mice [6]; [10]
  Affective paw-licking: abolished affective paw-licking
  Reflexive paw-flicks: preserving reflexive paw-flicks
Mice [6]; ketamine 13 mg/kg
  Affective behaviors: consistently preserved at 13 mg/kg
Mice [6]; ketamine 25 mg/kg
  Affective behaviors: selectively abolished at 25 mg/kg
Mice [6]; ketamine at 25 and 50 mg/kg
  Affective/emotional defensive behavior (paw-lick): abolished affective/emotional
  Motivational defensive behavior (jump-to-escape): abolished
Mice [6]; ketamine dose series
  Reflexive responses (paw-flick): did not reduce reflexive responses
mouse
  Lowest tested dose causing the oscillation and behavioral effects: 25 mg/kg
[7]; Supplementary Note 2
  Time over which ketamine-induced oscillation decayed: ~15 min
  Time over which ketamine-induced oscillation emerged: 2 min
[7]; ketamine 50 mg/kg i.p.
  Ketamine-induced 1-3 Hz movements: no ketamine-induced 1-3 Hz movements were observed
  Time for rhythm to emerge: ≤ 120 s
  Time for rhythm to return to baseline: ~45 min
[7]; ketamine, five consecutive days
  Magnitude of rhythm on repeated days: exhibited similar magnitude across five consecutive days
[7]; subanesthetic ketamine
  RSP activity-correlations with other dorsal-cortical regions: reduced RSP activity-correlations with all other dorsal-cortical regions
[7]; to other layers or nearby cortical regions
  Spread of the ketamine-rhythm: did not spread beyond layer 5 neurons in retrosplenial cortex
[7]; widefield imaging, i.p., ketamine 50 mg/kg subanesthetic dose, other drugs at doses of b234
  Cortical activity pattern: 1-3 Hz oscillation localized to retrosplenial cortex (RSP): a 1-3 Hz oscillation emerged in retrosplenial cortex (RSP), but not in any other cortical region
[8]; 8-12 min after ketamine injection (50 mg/kg i.p.)
  Correlations of brain regions with RSP: correlations with RSP were reduced
[8]; subanesthetic ketamine
  Coupling of anteromedial thalamic neurons with RSP: oscillate out-of-phase with RSP
  Coupling of laterodorsal and anteroventral thalamus: became more-strongly correlated to each other and RSP
  Rhythmicity of subcortical regions: specific subcortical regions (inaccessible to cortical imaging) exhibiting increased rhythmicity
